Experimental data from the kinase profiling compilation of Christmann-Franck et al. (2016).

What was measured:
Experiment in all cases: KINOMEscan competition binding
Conditions in all cases: compound 2.0 µM
TNK1 (human) = TNK1 (human) (UniProt Q13470)
GRK7 (human) = GRK7 (human) (UniProt Q8WTQ7)
DAPK2 (human) = DAPK2 (human) (UniProt Q9UIK4)
STK38L (human) = STK38L (human) (UniProt Q9Y2H1)
CSNK1A1 (human) = CSNK1A1 (human) (UniProt P48729)
TEC (human) = TEC (human) (UniProt P42680)
NEK2 (human) = NEK2 (human) (UniProt P51955)
PRKCQ (human) = PRKCQ (human) (UniProt Q04759)
PLK4 (human) = PLK4 (human) (UniProt O00444)
HIPK3 (human) = HIPK3 (human) (UniProt Q9H422)
MAP3K15 (human) = MAP3K15 (human) (UniProt Q6ZN16)
RPS6KA2 KD2 (human) = RPS6KA2 KD2 (human) (UniProt Q15349)
WEE2 (human) = WEE2 (human) (UniProt P0C1S8)
PIK3C2G (human) = PIK3C2G (human) (UniProt O75747)
CDK11B (human) = CDK11B (human) (UniProt P21127)
[1] = system: RET (human), P07949 [V804M]
MAPK8 (human) = MAPK8 (human) (UniProt P45983)
MAP4K2 (human) = MAP4K2 (human) (UniProt Q12851)
ROCK2 (human) = ROCK2 (human) (UniProt O75116)
PRKACA (human) = PRKACA (human) (UniProt P17612)
RPS6KA2 KD1 (human) = RPS6KA2 KD1 (human) (UniProt Q15349)
ICK (human) = ICK (human) (UniProt Q9UPZ9)
STK38 (human) = STK38 (human) (UniProt Q15208)
MAPK3 (human) = MAPK3 (human) (UniProt P27361)
MATK (human) = MATK (human) (UniProt P42679)
SLK (human) = SLK (human) (UniProt Q9H2G2)
LATS2 (human) = LATS2 (human) (UniProt Q9NRM7)
CLK1 (human) = CLK1 (human) (UniProt P49759)
TRPM6 (human) = TRPM6 (human) (UniProt Q9BX84)
CDK13 (human) = CDK13 (human) (UniProt Q14004)
[2] = system: EGFR (human), P00533 [L861Q]
CDC42BPB (human) = CDC42BPB (human) (UniProt Q9Y5S2)
CASK (human) = CASK (human) (UniProt O14936)
PKN2 (human) = PKN2 (human) (UniProt Q16513)
BMX (human) = BMX (human) (UniProt P51813)
GRK1 (human) = GRK1 (human) (UniProt Q15835)
[3] = system: EGFR (human), P00533 [746-750 del]
MAP3K9 (human) = MAP3K9 (human) (UniProt P80192)
[4] = system: FLT3 (human), P36888 [K663Q]
FRK (human) = FRK (human) (UniProt P42685)
ABL2 (human) = ABL2 (human) (UniProt P42684)
BMPR1B (human) = BMPR1B (human) (UniProt O00238)
CSF1R (human) = CSF1R (human) (UniProt P07333)

Sequence of PIK3C2G (human) (O75747 whole entry, looked up): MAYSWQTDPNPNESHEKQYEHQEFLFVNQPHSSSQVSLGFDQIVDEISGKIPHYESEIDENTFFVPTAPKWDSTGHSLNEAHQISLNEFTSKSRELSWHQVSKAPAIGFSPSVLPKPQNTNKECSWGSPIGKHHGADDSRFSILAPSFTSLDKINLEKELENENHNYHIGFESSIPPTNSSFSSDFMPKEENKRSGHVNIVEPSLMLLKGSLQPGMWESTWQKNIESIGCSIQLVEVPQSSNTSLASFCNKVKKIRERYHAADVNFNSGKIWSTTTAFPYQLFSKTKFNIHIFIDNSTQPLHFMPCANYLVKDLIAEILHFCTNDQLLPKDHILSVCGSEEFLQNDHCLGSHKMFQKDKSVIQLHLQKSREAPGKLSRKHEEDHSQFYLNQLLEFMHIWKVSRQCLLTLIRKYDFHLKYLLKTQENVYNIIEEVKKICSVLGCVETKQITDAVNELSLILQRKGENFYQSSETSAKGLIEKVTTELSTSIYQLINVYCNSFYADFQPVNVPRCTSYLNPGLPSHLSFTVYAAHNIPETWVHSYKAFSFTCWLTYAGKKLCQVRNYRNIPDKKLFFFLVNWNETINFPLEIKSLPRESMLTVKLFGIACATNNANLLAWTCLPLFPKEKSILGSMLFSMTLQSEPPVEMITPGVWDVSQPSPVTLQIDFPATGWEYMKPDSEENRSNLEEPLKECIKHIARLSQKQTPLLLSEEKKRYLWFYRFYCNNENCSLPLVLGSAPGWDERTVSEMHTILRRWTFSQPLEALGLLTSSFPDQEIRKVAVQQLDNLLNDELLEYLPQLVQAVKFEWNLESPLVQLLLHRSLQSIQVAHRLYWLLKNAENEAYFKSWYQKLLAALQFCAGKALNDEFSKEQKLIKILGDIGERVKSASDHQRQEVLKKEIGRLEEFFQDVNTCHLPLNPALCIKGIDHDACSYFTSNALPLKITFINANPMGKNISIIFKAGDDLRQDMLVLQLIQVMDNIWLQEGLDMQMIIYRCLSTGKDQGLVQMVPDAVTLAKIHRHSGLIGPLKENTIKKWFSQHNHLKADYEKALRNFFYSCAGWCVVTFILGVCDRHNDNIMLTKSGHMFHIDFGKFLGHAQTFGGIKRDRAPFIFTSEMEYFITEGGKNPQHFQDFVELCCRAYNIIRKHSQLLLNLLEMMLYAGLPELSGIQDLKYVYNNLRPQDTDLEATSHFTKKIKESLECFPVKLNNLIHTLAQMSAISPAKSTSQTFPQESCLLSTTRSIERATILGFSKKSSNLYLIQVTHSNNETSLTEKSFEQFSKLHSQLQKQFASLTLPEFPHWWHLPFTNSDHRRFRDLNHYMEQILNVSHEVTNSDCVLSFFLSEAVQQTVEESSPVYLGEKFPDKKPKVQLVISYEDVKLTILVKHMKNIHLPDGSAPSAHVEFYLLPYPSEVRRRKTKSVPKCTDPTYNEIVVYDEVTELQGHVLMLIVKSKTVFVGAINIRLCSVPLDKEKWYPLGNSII
Sequence of CLK1 (human) (P49759 whole entry, looked up): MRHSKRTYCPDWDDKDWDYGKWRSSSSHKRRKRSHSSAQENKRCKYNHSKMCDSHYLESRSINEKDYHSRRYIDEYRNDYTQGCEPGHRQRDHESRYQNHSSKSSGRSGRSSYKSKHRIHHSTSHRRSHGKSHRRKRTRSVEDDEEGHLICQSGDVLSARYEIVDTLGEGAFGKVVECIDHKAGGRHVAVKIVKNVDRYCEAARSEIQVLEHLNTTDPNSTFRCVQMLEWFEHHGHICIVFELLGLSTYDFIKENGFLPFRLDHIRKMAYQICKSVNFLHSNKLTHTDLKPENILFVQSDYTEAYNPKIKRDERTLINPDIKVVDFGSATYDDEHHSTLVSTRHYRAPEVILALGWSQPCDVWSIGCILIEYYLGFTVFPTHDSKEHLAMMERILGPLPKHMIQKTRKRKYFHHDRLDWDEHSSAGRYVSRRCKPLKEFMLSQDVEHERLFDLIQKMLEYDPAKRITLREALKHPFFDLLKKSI
Sequence of DAPK2 (human) (Q9UIK4 whole entry, looked up): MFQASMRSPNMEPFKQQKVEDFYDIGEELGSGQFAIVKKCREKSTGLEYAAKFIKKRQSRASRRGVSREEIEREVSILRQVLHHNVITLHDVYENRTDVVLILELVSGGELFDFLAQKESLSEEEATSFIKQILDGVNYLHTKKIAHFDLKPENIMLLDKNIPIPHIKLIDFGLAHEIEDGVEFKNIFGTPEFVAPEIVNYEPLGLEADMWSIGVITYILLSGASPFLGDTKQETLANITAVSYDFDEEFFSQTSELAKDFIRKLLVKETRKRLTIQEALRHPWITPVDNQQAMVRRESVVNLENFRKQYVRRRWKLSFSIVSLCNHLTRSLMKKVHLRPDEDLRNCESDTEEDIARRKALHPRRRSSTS
Sequence of CASK (human) (O14936 whole entry, looked up): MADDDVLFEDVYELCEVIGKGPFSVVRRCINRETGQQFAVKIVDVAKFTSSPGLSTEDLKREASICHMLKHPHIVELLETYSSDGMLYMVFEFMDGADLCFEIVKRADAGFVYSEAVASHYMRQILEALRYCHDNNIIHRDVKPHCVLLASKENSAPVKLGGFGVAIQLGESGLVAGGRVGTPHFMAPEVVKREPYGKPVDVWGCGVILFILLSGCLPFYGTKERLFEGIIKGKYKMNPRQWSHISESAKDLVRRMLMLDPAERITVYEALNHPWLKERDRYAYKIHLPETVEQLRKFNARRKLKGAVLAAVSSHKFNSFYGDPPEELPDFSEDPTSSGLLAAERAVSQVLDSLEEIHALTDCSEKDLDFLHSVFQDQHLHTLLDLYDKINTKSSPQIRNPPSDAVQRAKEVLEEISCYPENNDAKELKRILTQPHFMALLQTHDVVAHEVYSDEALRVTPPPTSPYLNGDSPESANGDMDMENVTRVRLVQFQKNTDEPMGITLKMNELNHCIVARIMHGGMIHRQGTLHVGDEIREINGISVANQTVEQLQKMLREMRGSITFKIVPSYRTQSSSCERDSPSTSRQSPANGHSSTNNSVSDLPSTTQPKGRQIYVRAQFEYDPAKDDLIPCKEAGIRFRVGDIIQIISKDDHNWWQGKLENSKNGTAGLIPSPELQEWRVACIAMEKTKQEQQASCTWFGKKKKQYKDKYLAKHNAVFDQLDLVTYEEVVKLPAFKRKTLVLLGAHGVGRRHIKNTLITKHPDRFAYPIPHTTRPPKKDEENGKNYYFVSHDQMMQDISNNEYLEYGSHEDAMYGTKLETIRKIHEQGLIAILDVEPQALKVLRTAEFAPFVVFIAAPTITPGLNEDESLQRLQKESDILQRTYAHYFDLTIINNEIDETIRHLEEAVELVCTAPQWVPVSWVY
Sequence of MAP3K15 (human) (Q6ZN16 whole entry, looked up): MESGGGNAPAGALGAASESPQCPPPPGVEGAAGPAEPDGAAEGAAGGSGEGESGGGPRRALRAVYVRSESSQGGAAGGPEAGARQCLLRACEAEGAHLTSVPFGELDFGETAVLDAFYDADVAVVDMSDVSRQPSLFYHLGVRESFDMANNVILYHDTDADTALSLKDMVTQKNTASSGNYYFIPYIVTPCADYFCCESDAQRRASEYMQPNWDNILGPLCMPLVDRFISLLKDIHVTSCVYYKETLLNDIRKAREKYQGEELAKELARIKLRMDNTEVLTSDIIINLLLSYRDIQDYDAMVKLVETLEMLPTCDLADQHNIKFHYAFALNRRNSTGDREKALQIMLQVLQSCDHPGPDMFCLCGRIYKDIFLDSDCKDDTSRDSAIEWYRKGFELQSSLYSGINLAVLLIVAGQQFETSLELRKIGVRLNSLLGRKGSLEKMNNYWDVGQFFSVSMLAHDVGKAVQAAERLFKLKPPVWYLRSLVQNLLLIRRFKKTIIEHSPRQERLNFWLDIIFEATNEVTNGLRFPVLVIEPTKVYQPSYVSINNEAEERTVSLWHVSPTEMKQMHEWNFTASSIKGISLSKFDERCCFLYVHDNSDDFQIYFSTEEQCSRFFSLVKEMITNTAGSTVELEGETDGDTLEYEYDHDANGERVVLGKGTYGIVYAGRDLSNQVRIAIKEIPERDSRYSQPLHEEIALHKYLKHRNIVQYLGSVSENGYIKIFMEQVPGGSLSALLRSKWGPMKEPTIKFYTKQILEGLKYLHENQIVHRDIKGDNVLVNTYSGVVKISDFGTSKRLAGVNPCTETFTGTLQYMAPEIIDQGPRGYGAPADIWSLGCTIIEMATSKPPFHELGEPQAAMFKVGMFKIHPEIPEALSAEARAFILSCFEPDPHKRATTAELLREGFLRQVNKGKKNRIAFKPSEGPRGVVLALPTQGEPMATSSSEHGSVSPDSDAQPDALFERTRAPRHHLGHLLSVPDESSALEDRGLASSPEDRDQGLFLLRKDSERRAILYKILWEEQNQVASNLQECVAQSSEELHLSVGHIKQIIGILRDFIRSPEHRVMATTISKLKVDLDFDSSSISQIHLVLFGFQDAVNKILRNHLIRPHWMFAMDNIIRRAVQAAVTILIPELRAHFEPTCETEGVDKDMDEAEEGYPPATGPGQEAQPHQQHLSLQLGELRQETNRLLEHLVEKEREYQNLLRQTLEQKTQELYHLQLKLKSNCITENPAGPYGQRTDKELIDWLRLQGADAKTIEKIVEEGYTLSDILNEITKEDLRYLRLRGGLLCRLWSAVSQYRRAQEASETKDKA
Sequence of MATK (human) (P42679 whole entry, looked up): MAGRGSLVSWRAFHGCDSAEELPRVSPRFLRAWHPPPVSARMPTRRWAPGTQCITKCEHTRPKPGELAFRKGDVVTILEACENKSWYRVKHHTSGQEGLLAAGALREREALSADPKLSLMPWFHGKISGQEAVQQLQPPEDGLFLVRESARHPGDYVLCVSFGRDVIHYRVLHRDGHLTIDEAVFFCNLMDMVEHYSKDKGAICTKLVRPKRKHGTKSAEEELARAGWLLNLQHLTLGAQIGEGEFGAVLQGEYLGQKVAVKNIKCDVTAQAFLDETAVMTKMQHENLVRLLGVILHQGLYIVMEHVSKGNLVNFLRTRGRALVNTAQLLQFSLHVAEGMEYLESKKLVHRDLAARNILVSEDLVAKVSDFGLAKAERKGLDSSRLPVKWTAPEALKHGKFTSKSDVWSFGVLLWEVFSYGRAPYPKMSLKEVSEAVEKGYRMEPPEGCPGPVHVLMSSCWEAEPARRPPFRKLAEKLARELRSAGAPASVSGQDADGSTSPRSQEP

`N#Cc1ccc2ncnc(NCCc3ccc4ccccc4c3)c2c1` was tested. Which kinase still bound, per cent of control (TNK1 (human)) did it give?
The kinase still bound, per cent of control was 90%.

What about the kinase still bound, per cent of control (GRK7 (human)) of the same compound?
The kinase still bound, per cent of control was 100%.

And the kinase still bound, per cent of control (DAPK2 (human))?
Its kinase still bound, per cent of control is 87%.

What about the kinase still bound, per cent of control (STK38L (human)) of the same compound?
The kinase still bound, per cent of control was 90%.

And the kinase still bound, per cent of control (CSNK1A1 (human))?
The kinase still bound, per cent of control was 87%.

And the kinase still bound, per cent of control (TEC (human))?
The kinase still bound, per cent of control was 100%.

What about the kinase still bound, per cent of control (NEK2 (human)) of the same compound?
The kinase still bound, per cent of control was 100%.

And the kinase still bound, per cent of control (PRKCQ (human))?
The kinase still bound, per cent of control was 100%.

What about the kinase still bound, per cent of control (PLK4 (human)) of the same compound?
The kinase still bound, per cent of control was 100%.

What about the kinase still bound, per cent of control (HIPK3 (human)) of the same compound?
Its kinase still bound, per cent of control is 78%.

And the kinase still bound, per cent of control (MAP3K15 (human))?
The kinase still bound, per cent of control was 91%.

What about the kinase still bound, per cent of control (RPS6KA2 KD2 (human)) of the same compound?
The kinase still bound, per cent of control was 85%.

What about the kinase still bound, per cent of control (WEE2 (human)) of the same compound?
The kinase still bound, per cent of control was 65%.

And the kinase still bound, per cent of control (PIK3C2G (human))?
The kinase still bound, per cent of control was 100%.

And the kinase still bound, per cent of control (CDK11B (human))?
The kinase still bound, per cent of control was 99%.

And the kinase still bound, per cent of control [1]?
Its kinase still bound, per cent of control is 100%.

And the kinase still bound, per cent of control (MAPK8 (human))?
The kinase still bound, per cent of control was 100%.

And the kinase still bound, per cent of control (MAP4K2 (human))?
Its kinase still bound, per cent of control is 60%.

What about the kinase still bound, per cent of control (ROCK2 (human)) of the same compound?
The kinase still bound, per cent of control was 92%.

What about the kinase still bound, per cent of control (PRKACA (human)) of the same compound?
Its kinase still bound, per cent of control is 100%.

What about the kinase still bound, per cent of control (RPS6KA2 KD1 (human)) of the same compound?
The kinase still bound, per cent of control was 100%.

And the kinase still bound, per cent of control (ICK (human))?
Its kinase still bound, per cent of control is 100%.

And the kinase still bound, per cent of control (STK38 (human))?
The kinase still bound, per cent of control was 100%.

What about the kinase still bound, per cent of control (MAPK3 (human)) of the same compound?
The kinase still bound, per cent of control was 95%.

And the kinase still bound, per cent of control (MATK (human))?
Its kinase still bound, per cent of control is 100%.

And the kinase still bound, per cent of control (SLK (human))?
Its kinase still bound, per cent of control is 73%.

What about the kinase still bound, per cent of control (LATS2 (human)) of the same compound?
Its kinase still bound, per cent of control is 100%.

And the kinase still bound, per cent of control (CLK1 (human))?
The kinase still bound, per cent of control was 56%.

What about the kinase still bound, per cent of control (TRPM6 (human)) of the same compound?
The kinase still bound, per cent of control was 100%.

And the kinase still bound, per cent of control (CDK13 (human))?
Its kinase still bound, per cent of control is 100%.

What about the kinase still bound, per cent of control [2] of the same compound?
Its kinase still bound, per cent of control is 60%.

And the kinase still bound, per cent of control (CDC42BPB (human))?
The kinase still bound, per cent of control was 100%.

And the kinase still bound, per cent of control (CASK (human))?
The kinase still bound, per cent of control was 100%.

What about the kinase still bound, per cent of control (PKN2 (human)) of the same compound?
The kinase still bound, per cent of control was 100%.

What about the kinase still bound, per cent of control (BMX (human)) of the same compound?
Its kinase still bound, per cent of control is 97%.

What about the kinase still bound, per cent of control (GRK1 (human)) of the same compound?
The kinase still bound, per cent of control was 100%.

And the kinase still bound, per cent of control [3]?
Its kinase still bound, per cent of control is 100%.

What about the kinase still bound, per cent of control (MAP3K9 (human)) of the same compound?
The kinase still bound, per cent of control was 85%.

And the kinase still bound, per cent of control [4]?
Its kinase still bound, per cent of control is 98%.

And the kinase still bound, per cent of control (FRK (human))?
Its kinase still bound, per cent of control is 100%.

And the kinase still bound, per cent of control (ABL2 (human))?
The kinase still bound, per cent of control was 99%.

And the kinase still bound, per cent of control (BMPR1B (human))?
The kinase still bound, per cent of control was 90%.

What about the kinase still bound, per cent of control (CSF1R (human)) of the same compound?
The kinase still bound, per cent of control was 77%.
